Consider one compound from patent US10258629B2, “Liposomal drug encapsulation” (priority 2014, dated 2019).

For data set [1] the following is noted: 0.8 mg/Kg injected as free staurosporine; 'would very likely be'; cited from earlier work.
Data set [2] is described as follows: Acute toxicity of free staurosporine. Particulars: 5 mg/Kg free staurosporine.
Data set [3] concerns U87 cells. Put plainly: In vivo anti-tumor activity against very large U87 flank tumors (FIG. 9). Particulars: treatment over two weeks.
A short description of data set [4]: Reverse pH gradient encapsulation efficiency of staurosporine in liposomes.
Protocol: The dried lipid film was hydrated with a buffer containing ammonium phosphate, ammonium sulfate, sodium phosphate, or sodium sulfate (300 mM, 7.4) and vortexed for 1 minute to remove any adhering lipid film. Sonication in a bath sonicator (ULTRAsonik 28X) for 1 minute at room temperature produced multilamellar vesicles (MLV). ME-Vs were then sonicated with a Ti-probe (Branson 450 sonifier) for 2 minutes to produce small unilamellar vesicles (SUV), indicated by the formation of a translucent solution. Extrusion through a 100 nm pore size polycarbonate filter (Whatman) was the final stage of a stepwise series of extrusions to reduce SUV size.
The prepared liposomes with internal buffer at pH 3 or 7.4 were passed through a Sephadex G-50 column equilibrated with HEPES buffered saline (FIBS; 20 mM HEPES, 150 mM NaCl, pH 7.4) to exchange the external buffer.

Turning to `CN[C@@H]1C[C@H]2O[C@@](C)([C@@H]1OC)n1c3ccccc3c3c4c(c5c6ccccc6n2c5c31)C(=O)NC4` [free staurosporine, (9S, 10R, 11R, 13R)-2,3,10,11,12,13-Hexahydro-10-methoxy-9-methyl-11-(methylamino)-9,13-epoxy-1H,9H-diindolo[1,2,3-gh:3′,2′r-lm]pyrrolo[3,4-j][1,7]benzodiazonin-1-one], in data set [1], the “Fraction cleared after only one circulatory pass” value was 99%. For the same compound, the Acute lethality result in data set [2] is reported as “acutely lethal”. Further, the Body weight result in data set [3] was “body weight did decline”. Further, in data set [3] (tumors 180-200 mm^3 at start, relative to PBS, p<0.004 for liposomal), the Tumor growth entry was “no demonstrable effect”. The “Increase of encapsulation when a pH gradient existed” value in data set [4] (internal buffer pH 7.4 versus pH 3, external buffer constant at pH 3) is given as 14 fold. The Encapsulation rate entry in data set [4] (internal pH 5, external pH 7.4) is given as “very low encapsulation rates”. Moreover, the “Liposomal loading capacity, peak value” in data set [4] (lipid to drug ratio 11.11 (mole/mole)) was 70%.
